According to ChEMBL document CHEMBL1201862, “PubChem BioAssay data set” (2004):
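Each compound was tested at five concentrations against cells in 96-well plates for 48 hours. GI50 = concentration required for 50% inhibition of growth.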 Activity calls are given as the source filed them. Cut-off read from the data, not from the text of the source: active = GI50 up to about 1.1 µM and inactive = higher.

How the values were obtained:
Assay in all cases: NCI anticancer screen, dose series, 48 h
CCRF-CEM = system: CCRF-CEM
HCC 2998 = system: HCC 2998
HCT-116 = system: HCT-116
HOP-62 = system: HOP-62
K562 = system: K562
KM12 = system: KM12
MDA-MB-231 = system: MDA-MB-231
MDA-MB-435 = system: MDA-MB-435
MOLT-4 = system: MOLT-4
NCI-H23 = system: NCI-H23
OVCAR-3 = system: OVCAR-3
OVCAR-4 = system: OVCAR-4
OVCAR-5 = system: OVCAR-5
PC-3 = system: PC-3
RPMI-8226 = system: RPMI-8226
SF-268 = system: SF-268
SK-MEL-5 = system: SK-MEL-5
SNB-75 = system: SNB-75
TK-10 = system: TK-10
U-251 = system: U-251

SMILES	GI50 (CCRF-CEM)	GI50 (HCC 2998)	GI50 (HCT-116)	GI50 (HOP-62)	GI50 (K562)	GI50 (KM12)	GI50 (MDA-MB-231)	GI50 (MDA-MB-435)	GI50 (MOLT-4)	GI50 (NCI-H23)	GI50 (OVCAR-3)	GI50 (OVCAR-4)	GI50 (OVCAR-5)	GI50 (PC-3)	GI50 (RPMI-8226)	GI50 (SF-268)	GI50 (SK-MEL-5)	GI50 (SNB-75)	GI50 (TK-10)	GI50 (U-251)
COc1ccc(/C=C2\NC(=S)N(/C=C3\C(=O)Oc4ccccc4C3=O)C2=O)cc1OC	45 µM (inactive)	> 100 µM (inactive)	> 100 µM (inactive)	> 100 µM (inactive)	> 100 µM (inactive)	90.2 µM (inactive)	> 100 µM (inactive)	> 100 µM (inactive)	> 100 µM (inactive)	> 100 µM (inactive)	87.3 µM (inactive)	> 100 µM (inactive)	> 100 µM (inactive)	> 100 µM (inactive)	> 100 µM (inactive)	> 100 µM (inactive)	> 100 µM (inactive)	32.4 µM (inactive)	> 100 µM (inactive)	> 100 µM (inactive)
COC(=O)/C=C\COCC1C2CCC(=O)C21 (stereo not given)	5.66 µM (inactive)	> 25 µM (inactive)	16.3 µM (inactive)	> 25 µM (inactive)	8.28 µM (inactive)	17.9 µM (inactive)	> 25 µM (inactive)	> 25 µM (inactive)	6.07 µM (inactive)	> 25 µM (inactive)	8.41 µM (inactive)	> 25 µM (inactive)	> 25 µM (inactive)	> 25 µM (inactive)	11 µM (inactive)	4.68 µM (inactive)	22.9 µM (inactive)	> 25 µM (inactive)	13 µM (inactive)	> 25 µM (inactive)
CS(=O)(=O)Nc1ccc2ccccc2c1-c1c(NS(C)(=O)=O)ccc2ccccc12	> 25 µM (inactive)	> 25 µM (inactive)	> 18.6 µM (inactive)	> 25 µM (inactive)	> 25 µM (inactive)	> 25 µM (inactive)	> 25 µM (inactive)	> 25 µM (inactive)	> 25 µM (inactive)	> 25 µM (inactive)	> 25 µM (inactive)	> 25 µM (inactive)	> 25 µM (inactive)	> 25 µM (inactive)	> 25 µM (inactive)	> 25 µM (inactive)	> 25 µM (inactive)	> 19.1 µM (inactive)	> 25 µM (inactive)	> 25 µM (inactive)
COc1cc(C2c3cc4c(cc3OC(NC3CCCCC3)C2C)OCO4)cc(OC)c1OC (stereo not given)	0.422 µM (active)	1.5 µM (inactive)	0.47 µM (active)	2.38 µM (inactive)	0.393 µM (active)	0.407 µM (active)	0.393 µM (active)	0.19 µM (active)	0.48 µM (active)	0.499 µM (active)	0.267 µM (active)	0.615 µM (active)	3.03 µM (inactive)	0.382 µM (active)	0.403 µM (active)	0.701 µM (active)	0.362 µM (active)	0.223 µM (active)	16.9 µM (inactive)	0.467 µM (active)
CCOC(=O)c1ccc(C(=O)OCC)n1-c1cc2cc(c1)CSCc1cc(cc(-n3c(C(=O)OCC)ccc3C(=O)OCC)c1)CSC2	> 10 µM (inactive)	> 10 µM (inactive)	> 10 µM (inactive)	> 10 µM (inactive)	> 10 µM (inactive)	> 10 µM (inactive)	> 10 µM (inactive)	> 10 µM (inactive)	> 10 µM (inactive)	> 10 µM (inactive)	> 10 µM (inactive)	> 10 µM (inactive)	> 10 µM (inactive)	> 10 µM (inactive)	> 10 µM (inactive)	> 10 µM (inactive)	> 10 µM (inactive)	> 10 µM (inactive)	> 10 µM (inactive)	> 10 µM (inactive)
